Laboratory results reported in patent US20120121610A1, “THERAPEUTIC AGENT AND ASSAY” (priority 2009, published 2012).

B1: Chk1 (serine/threonine protein kinase Chk1) (enzyme, UniProt O14757 1-476, looked up)
chain: MAVPFVEDWDLVQTLGEGAYGEVQLAVNRVTEEAVAVKIVDMKRAVDCPENIKKEICINKMLNHENVVKFYGHRREGNIQYLFLEYCSGGELFDRIEPDIGMPEPDAQRFFHQLMAGVVYLHGIGITHRDIKPENLLLDERDNLKISDFGLATVFRYNNRERLLNKMCGTLPYVAPELLKRREFHAEPVDVWSCGIVLTAMLAGELPWDQPSDSCQEYSDWKEKKTYLNPWKKIDSAPLALLHKILVENPSARITIPDIKKDRWYNKPLKKGAKRPRVTSGGVSESPSGFSKHIQSNLDFSPVNSASSEENVKYSSSQPEPRTGLSLWDTSPSYIDKLVQGISFSQPTCPDHMLLNSQLLGTPGSSQNPWQRLVKRMTRFFTKLDADKSYQCLKETCEKLGYQWKKSCMNQVTISTTDRRNNKLIFKVNLLEMDDKILVDFRLSKGDGLEFKRHFLKIKGKLIDIVSSQKIWLPAT
notes: Endogenous protein in HeLa whole cell extract; HeLa is a human cell line; also called Chk1 protein kinase

Tests used:
HeLa cells = experiment: BrdU pulse / PI bivariate FACS analysis of replisome stability; assay type: cell-based; conditions: hydroxyurea 24 hr
Experimental: In order to evaluate the effect of Claspin depletion on replisome stability, the ability of Claspin-depleted cells to maintain functional replisomes in the continuous presence of imposed replicational stress was investigated (FIG. 1). To do this, cells were treated with buffer control or 2 mM hydroxyurea (HU) for 24 h, then exposed to a 30 min pulse of BrdU, prior to fixation and PI staining, and subsequent bivariate FACS analysis.
(§1) HeLa or HCC1937 cells were seeded at 5×10^4 or 2×10^5 cells into 6-well tissue culture plates respectively, in 1 mL of their media and left for 24 hours. Cells were then washed twice with warm PBS and transfected twice over 48 hours with SMARTpool™ siRNA against Claspin (Dharmacon, Chicago, Ill., USA) at a concentration of 100 nM for 5 hours in serum free media (OptiMEM (Invitrogen)) using Oligofectamine (Invitrogen) as per manufacturer's instructions. After each transfection, cells were then washed once with warm PBS, and 1.5 mL of media added and then left for 19 hours. After transfection cells were trypsinized and seeded into 60 mm dishes and left in fresh media for 24 hours before being treated with either 0 or 2 mM HU for 24 hours. Alternatively cells were untreated, left in a flow cabinet for an equivalent time. […]

HCC1937 cells = experiment: as above; assay type: cell-based; conditions: mock siRNA-treated HCC1937 cells
Experimental: BRCA1 has been implicated previously in the cellular response to IR, and BRCA1-deficient cells fail to activate Chk1 following IR exposure. The inventors investigated the effect of siRNA-mediated knockdown of Claspin in HCC1937 cells which lack functional BRCA1 and which have been previously shown to have a defective G2 checkpoint, failing to arrest on exposure to IR. […] The loss of BrdU incorporation was particularly observed in mid- to late-S phase cells.
as §1

MDC1 = molecular target: T1, MDC1 (UniProt Q14676 1-2089); experiment: co-immunoprecipitation with anti-Chk1 antibody from HeLa cell extracts, immunoblot
T1 construct: Endogenous protein in HeLa whole cell extract
Experimental: (§2) Cells were then lysed through 3 freeze/thaw cycles, and clarified by centrifugation at 14,000 rpm for 5 mins at 4° C. The supernatant was then removed and assayed for concentration by Bradford assay (Pierce) and aliquots stored at −70° C. until use. For immunoblotting 25-60 μg of whole cell extract was used per well in Laemmli SDS loading buffer. Extracts were separated on 6-12% SDS-PAGE gels before being transferred to nitrocellulose membrane (Protran) for probing. Membranes were blocked in either 5% Marvel milk or 5% BSA according to antibody manufacturer's guidelines. Membranes were then washed before being probed with primary antibodies diluted in blocking buffer. […] Secondary antibodies were anti-rabbit IgG-HRP, anti-sheep IgG-HRP and anti-mouse IgG-HRP (Jackson Immunologicals) and bands were detected using enhanced chemiluminescence (ECL) (Amersham Pharmacia) and autoradiographic film (FUJI film).
(§3) Immunoprecipitation (IP) as carried out with 500 μg to 1 mg of whole cell extract per IP. […] Complexes isolated were then analysed by immunoblotting.

TopBP1 = molecular target: T2, TopBP1 (UniProt Q92547 1-1522); experiment: as above
T2 construct: Endogenous protein in HeLa whole cell extract
Experimental: as §2, §3

T1 sequence (Q14676 whole entry): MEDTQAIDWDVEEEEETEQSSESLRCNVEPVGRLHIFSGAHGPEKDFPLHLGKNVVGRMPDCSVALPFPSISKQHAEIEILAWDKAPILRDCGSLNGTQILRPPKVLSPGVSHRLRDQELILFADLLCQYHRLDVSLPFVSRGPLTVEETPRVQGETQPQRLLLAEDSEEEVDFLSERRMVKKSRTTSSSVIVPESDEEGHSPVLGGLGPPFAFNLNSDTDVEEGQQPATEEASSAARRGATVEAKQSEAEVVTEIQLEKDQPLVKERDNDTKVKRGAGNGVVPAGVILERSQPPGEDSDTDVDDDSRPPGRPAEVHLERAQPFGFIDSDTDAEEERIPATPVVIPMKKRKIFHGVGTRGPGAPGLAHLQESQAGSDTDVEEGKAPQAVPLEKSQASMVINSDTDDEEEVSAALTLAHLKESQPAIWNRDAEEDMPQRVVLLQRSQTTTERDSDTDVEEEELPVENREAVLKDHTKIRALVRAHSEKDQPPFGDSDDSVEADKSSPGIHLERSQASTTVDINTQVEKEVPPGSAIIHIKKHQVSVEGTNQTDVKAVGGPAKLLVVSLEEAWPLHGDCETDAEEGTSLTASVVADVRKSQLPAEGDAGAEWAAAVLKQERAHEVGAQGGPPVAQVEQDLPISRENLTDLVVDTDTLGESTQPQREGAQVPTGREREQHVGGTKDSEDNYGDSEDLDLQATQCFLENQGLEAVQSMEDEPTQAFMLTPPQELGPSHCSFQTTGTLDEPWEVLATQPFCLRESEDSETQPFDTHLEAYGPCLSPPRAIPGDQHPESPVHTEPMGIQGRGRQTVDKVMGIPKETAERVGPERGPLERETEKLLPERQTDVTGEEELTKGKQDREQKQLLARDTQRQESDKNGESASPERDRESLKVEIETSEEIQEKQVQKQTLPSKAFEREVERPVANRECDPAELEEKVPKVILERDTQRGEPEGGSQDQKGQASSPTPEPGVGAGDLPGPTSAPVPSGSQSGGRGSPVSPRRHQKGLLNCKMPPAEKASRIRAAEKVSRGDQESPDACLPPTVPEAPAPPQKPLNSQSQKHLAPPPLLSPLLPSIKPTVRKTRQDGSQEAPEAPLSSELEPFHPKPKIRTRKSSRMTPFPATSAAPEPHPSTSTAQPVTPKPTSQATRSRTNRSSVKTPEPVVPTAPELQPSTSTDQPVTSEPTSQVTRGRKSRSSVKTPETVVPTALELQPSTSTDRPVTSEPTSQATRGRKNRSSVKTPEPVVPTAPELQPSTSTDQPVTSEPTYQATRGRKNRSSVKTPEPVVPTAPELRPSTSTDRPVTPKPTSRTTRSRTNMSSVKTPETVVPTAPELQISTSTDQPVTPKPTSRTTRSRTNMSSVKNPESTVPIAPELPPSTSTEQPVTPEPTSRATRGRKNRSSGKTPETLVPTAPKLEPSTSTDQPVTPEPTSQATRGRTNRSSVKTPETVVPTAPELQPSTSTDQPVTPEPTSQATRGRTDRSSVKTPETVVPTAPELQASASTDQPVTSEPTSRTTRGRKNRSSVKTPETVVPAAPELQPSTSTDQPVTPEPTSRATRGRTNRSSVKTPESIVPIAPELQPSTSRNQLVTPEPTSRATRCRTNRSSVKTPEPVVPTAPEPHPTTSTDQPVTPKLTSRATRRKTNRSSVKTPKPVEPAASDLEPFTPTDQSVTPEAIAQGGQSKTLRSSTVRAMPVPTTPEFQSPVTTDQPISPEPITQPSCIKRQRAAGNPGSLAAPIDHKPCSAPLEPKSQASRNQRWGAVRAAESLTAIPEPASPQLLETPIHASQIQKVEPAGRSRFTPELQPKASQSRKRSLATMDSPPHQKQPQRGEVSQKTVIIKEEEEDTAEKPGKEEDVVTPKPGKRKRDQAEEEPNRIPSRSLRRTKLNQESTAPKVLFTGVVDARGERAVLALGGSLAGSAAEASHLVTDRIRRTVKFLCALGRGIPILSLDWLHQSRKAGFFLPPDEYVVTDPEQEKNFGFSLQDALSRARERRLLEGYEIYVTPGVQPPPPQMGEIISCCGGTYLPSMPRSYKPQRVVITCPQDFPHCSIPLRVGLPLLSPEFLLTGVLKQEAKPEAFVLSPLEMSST
T2 sequence (Q92547 whole entry): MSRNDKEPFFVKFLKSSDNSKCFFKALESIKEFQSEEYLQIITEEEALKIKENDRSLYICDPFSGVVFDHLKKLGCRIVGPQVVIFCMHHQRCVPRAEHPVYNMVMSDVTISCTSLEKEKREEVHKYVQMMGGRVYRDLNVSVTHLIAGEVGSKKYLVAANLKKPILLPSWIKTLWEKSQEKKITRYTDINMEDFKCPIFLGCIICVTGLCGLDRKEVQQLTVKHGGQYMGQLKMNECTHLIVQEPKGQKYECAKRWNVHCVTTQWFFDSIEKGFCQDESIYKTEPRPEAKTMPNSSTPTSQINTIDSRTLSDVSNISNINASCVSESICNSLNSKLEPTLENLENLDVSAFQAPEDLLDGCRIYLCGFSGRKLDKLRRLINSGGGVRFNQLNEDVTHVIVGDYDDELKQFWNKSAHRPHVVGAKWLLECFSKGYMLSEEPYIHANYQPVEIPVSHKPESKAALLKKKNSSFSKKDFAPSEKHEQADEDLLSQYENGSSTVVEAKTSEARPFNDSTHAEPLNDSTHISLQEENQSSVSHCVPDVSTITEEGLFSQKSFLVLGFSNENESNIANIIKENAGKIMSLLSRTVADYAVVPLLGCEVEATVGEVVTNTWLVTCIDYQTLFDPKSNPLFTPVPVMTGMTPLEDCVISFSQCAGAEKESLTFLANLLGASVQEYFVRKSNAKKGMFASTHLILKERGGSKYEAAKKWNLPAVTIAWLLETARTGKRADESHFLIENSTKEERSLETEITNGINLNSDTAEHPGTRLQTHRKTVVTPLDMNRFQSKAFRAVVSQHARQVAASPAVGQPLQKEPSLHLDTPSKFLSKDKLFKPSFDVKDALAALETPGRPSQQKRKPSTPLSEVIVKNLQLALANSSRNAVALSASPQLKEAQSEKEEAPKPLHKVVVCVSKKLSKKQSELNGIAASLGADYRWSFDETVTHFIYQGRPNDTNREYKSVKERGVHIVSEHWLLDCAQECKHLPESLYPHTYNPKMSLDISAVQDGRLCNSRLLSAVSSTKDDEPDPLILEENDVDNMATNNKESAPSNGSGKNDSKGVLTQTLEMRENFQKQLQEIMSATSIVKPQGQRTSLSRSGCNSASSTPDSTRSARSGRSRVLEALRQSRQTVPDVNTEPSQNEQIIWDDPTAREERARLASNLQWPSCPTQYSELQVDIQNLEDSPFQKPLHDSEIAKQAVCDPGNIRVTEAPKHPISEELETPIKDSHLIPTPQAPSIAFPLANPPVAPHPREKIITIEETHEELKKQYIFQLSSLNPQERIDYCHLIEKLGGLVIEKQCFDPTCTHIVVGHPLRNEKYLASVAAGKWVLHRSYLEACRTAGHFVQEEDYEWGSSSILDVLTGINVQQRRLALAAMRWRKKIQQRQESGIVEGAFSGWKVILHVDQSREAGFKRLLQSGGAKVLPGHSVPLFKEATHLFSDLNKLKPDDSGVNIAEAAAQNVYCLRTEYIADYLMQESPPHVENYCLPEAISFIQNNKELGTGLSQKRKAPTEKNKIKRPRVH

Row | Molecule | accumulation of cells in early S phase (HeLa cells) | accumulation of cells in early S-phase (HCC1937 cells) | binding result (MDC1) | binding result (TopBP1)
1 | NC(=O)NO [hydroxyurea] | significant accumulation of cells in early S phase | accumulation of cells in early S-phase |  | 
2 | B1 |  |  | no binding | no binding
